Measurements: PMC6112376, “Comprehensive Analyses and Prioritization of Tox21 10K Chemicals Affecting Mitochondrial Function by in-Depth Mechanistic Studies” (Environmental Health Perspectives, 2018)
Counter-ions that a name gives are not always drawn. Like-named read-outs stand apart in the source and are kept apart here.

Experiments:
HepG2 cells [1] = conditions: cited from earlier work
rat primary hepatocytes [2] = test system: rat primary hepatocytes
HepG2 cells [3] = conditions: for IC50: read-out: MMP assays IC50 (µM) HepG2
rat primary hepatocytes [4] = experiment: MMP assay in rat primary hepatocytes; conditions: for IC50: read-out: MMP assays IC50 (µM) Rat Hepatocytes
[5] = read-out: MMP assays IC50 (µM), qHTS-HepG2
[6] = read-out: MMP assays IC50 (µM) qHTS-HepG2

| Compound | MMP assays efficacy (%) qHTS-HepG2 (HepG2 cells [1]) | IC50 (HepG2 cells [1]; [5]) [µM] | MMP assays efficacy (%) Rat Hepatocytes (rat primary hepatocytes [2]) | MMP assays efficacy (%) HepG2 (HepG2 cells [3]) | IC50 (HepG2 cells [3]) [µM] | IC50 (rat primary hepatocytes [4]) [µM] | IC50 (HepG2 cells [1]; [6]) [µM] | MMP assays IC50 (µM) HepG2 (HepG2 cells [3]) | MMP assays IC50 (µM) Rat Hepatocytes (rat primary hepatocytes [4]) | IC50 (rat primary hepatocytes [4]; Rattus norvegicus, Hepatocyte) [µM] | MMP assays IC50 (µM) qHTS-HepG2 (HepG2 cells [1]) |
| --- | --- | --- | --- | --- | --- | --- | --- | --- | --- | --- | --- |
| Mepartricin | -82±8% | 23.2 ± 6.59 | -65±17% | -99% | 6.9 | 27.7 ± 4.48 | – | – | – | – | – |
| Cc1ccc(-n2nc(C(C)(C)C)cc2NC(=O)Nc2ccc(OCCN3CCOCC3)c3ccccc23)cc1 [Doramapimod;BIBR-796?] | – | – | -77±5% | -69% | 21.8 | 24.1 ± 9.54 | 21.1 ± 5.52 | – | – | – | – |
| Clc1ccc(Nc2nnc(Cc3ccncc3)c3ccccc23)cc1 | -81±8% | 25.6 ± 4.41 | -51±4% | -34% | 30.8 | 20.7 ± 14.7 | – | – | – | – | – |
| CCCCC(CC)C(=O)[O-].CCCCC(CC)C(=O)[O-].[Ba+2] (centres unmarked) [Barium bis(2-ethylhexanoate)] | -58±20% | – | -43±30% | inactive | – | – | 15.4 ± 10.3 | inactive | inactive | – | – |
| CCC[CH2][Sn]([CH2]CCC)([CH2]CCC)[CH2]CCC [Tetrabutyltin] | -100±1% | 5.66 ± 1.03 | inactive | -98% | 11.2 | – | – | – | inactive | – | – |
| O=[N+]([O-])c1cccc2ccccc12 [Compound 1-Nitronaphthalene] | -40±7% | – | -54±17% | inactive | – | – | 59.7 ± 7.06 | inactive | – | 45.9 ± 14.7 | – |
| Nc1ccc(/N=N/c2ccccc2)c(N)n1 [Phenazopyridine hydrochloride] | -74±20% | 15.7 ± 3.45 | -59±26% | inactive | – | – | – | inactive | – | 23.8 ± 1.93 | – |
| Cl.Cl.Nc1ccccc1N [1,2-Phenylenediamine dihydrochloride] | -99±9% | – | -104±10% | -90% | 1.78 | 14.2 ± 2.3 | 0.44 ± 0.2 | – | – | – | – |
| O=C(N[C@@H]1N=C(c2ccccc2F)c2cccc3c2N(CC3)C1=O)c1cc2ccccc2[nH]1 | -64±4% | – | -61±16% | -81% | 13.8 | 17.3 | 8.41 | – | – | – | – |
| C=C1CC[C@H](O)C/C1=C/C=C1\CCC[C@]2(C)[C@@H]([C@H](C)CCCC(C)C)CC[C@@H]12 [Vitamin D3] | inactive | – | inactive | inactive | – | – | – | inactive | inactive | – | inactive |
| O=C1C(I)=CC(=C(c2cc(I)c(O)c(I)c2)c2ccccc2C(=O)O)C=C1I [Iodophthalein sodium] | -82±5% | 10.8 ± 3.91 | -107±27% | -97% | 6.9 | 8.73 ± 1 | – | – | – | – | – |
| Methyl violet | -121±3% | 0.07 ± 0.03 | -81±20% | -100% | 0.44 | 1.73 | – | – | – | – | – |
| COc1cc([C@@H]2c3cc4c(cc3[C@H](O)[C@H]3COC(=O)[C@@H]23)OCO4)cc(OC)c1OC [Picropodophyllin;AXL-1717/NSC-36407] | -56±10% | 0.14 ± 0.02 | inactive | -58% | 0.0548 | – | – | – | inactive | – | – |
| CC(C)(c1ccccc1)c1ccc(O)c(C(C)(C)c2ccccc2)c1 [2,4-Bis(1-methyl-1-phenylethyl)phenol] | -108±7% | – | -78±5% | -90% | 2.82 | 43.9 ± 17.4 | 3.49 ± 1.51 | – | – | – | – |
| Oc1cc(Cl)c(Cl)cc1Cl.[Na] [2,4,5-Trichlorophenol sodium salt] | -99±23% | – | -130±56% | -98% | 10 | 27.3 ± 25.2 | 5.05 ± 2.09 | – | – | – | – |
| [F][Sn]([c]1ccccc1)([c]1ccccc1)[c]1ccccc1 [Triphenyltin fluoride] | -106±5% | 0.47 ± 0.31 | -81±23% | -104% | 1.78 | 6.17 ± 2.51 | – | – | – | – | – |
| Cl.Cl.NNCc1ccccc1 [Benzylhydrazine dihydrochloride] | -106±12% | – | inactive | -88% | 19.9 | – | 27.8 ± 3.21 | – | inactive | – | – |
| O=C1NCN(c2ccccc2)C12CCN(CCCOc1ccc(F)cc1)CC2 [AMI-193] | -73±11% | – | -37±21% | -75% | 7.74 | 26 ± 12.2 | 5.82 ± 3.05 | – | – | – | – |
| CN(C)c1ccc(C(=C2C=CC(=[N+](C)C)C=C2)c2ccccc2)cc1.CN(C)c1ccc(C(=C2C=CC(=[N+](C)C)C=C2)c2ccccc2)cc1.O=C(O)C(=O)O.O=C([O-])C(=O)O.O=C([O-])C(=O)O [Malachite green oxalate] | -100±20% | 2.1 ± 1.87 | -44±26% | -65% | 27.5 | 8.67 ± 12.3 | – | – | – | – | – |
| Cc1oc(C)c(C(=O)Nc2ccccc2)c1C [Methfuroxam] | -69±12% | 25.8 ± 1.71 | inactive | -48% | 17.8 | – | – | – | inactive | – | – |
| Nc1cccc(O)c1 [Compound 3-Aminophenol] | inactive | – | inactive | inactive | – | – | – | inactive | inactive | – | inactive |
| Cl.Nc1c2ccccc2nc2ccccc12.O | -82±4% | – | -56±22% | -115% | 21.8 | 8.51 ± 5.35 | 13.8 ± 1.75 | – | – | – | – |
| CCCCCCCC/C=C\CCCCCCCC(=O)NCc1ccc(O)c(OC)c1 [Olvanil] | -74±8% | 13.5 ± 1.9 | inactive | inactive | – | – | – | inactive | inactive | – | – |
| COc1ccc2c(=O)c(C)c(-c3ccccc3)oc2c1CN(C)C.Cl [Dimefline hydrochloride] | inactive | – | inactive | inactive | – | – | – | inactive | inactive | – | inactive |
| CC#C[C@]1(O)CC[C@H]2[C@@H]3CCC4=CC(=O)CCC4=C3[C@@H](c3ccc(N(C)C)cc3)C[C@@]21C | -97±21% | 16.1 ± 32.5 | inactive | inactive | – | – | – | inactive | inactive | – | – |
